According to patent publication US8846639B2, “Oligomeric compounds comprising bicyclic nucleosides and having reduced toxicity” (Isis Pharmaceutical, Inc., priority 2008, dated 2014):
Values joined by “and” are separate entries in the source; they are usually repeats but may differ in a detail not shown here. Identical values can stand only once.

Key:
PTEN mRNA = PTEN mRNA levels in liver, real-time PCR (Example 14 in vivo study); parameters: species or system mice; details: for PTEN mRNA levels (% inhibition): liver, 72 h; for ED50: estimated, Graphpad Prism, dose at which 50% mRNA reduction is observed
Method: (§1) Six week old male Balb/c mice (Jackson Laboratory, Bar Harbor, Me.) were administered a single intraperitoneal (i.p) injection with 4′-CH2—O-2′ BNA containing oligomers (392745 and 392063) and 6(S)-4′-CH(CH3)—O-2′ BNA containing oligomers (392749 and 411847) at a does of 3.2, 10, 32, 66 and 100 mg/kg. Oligomers 392063 and 411847 contain LNA nucleosides with methylated pyrimidines, and oligomers 392745 and 392749 contain LNA nucleosides with non-methylated pyrimidines in the wings. All intemucleoside linkages are phosphorothioates, nucleosides not followed by a subscript are βD-2′-deoxyribonucleosides, nucleosides followed by a subscript 1 are 4′-CH2—O-2′ modified bicyclic nucleosides, nucleosides followed by a subscript S are 6(S)-4′-CH(CH3)—O-2′ modified bicyclic nucleosides wherein S indicates the configuration at the 6 carbon atom and ^MeC indicates a 5′-methyl cytosine nucleoside.
Each dose group consisted of four animals. The mice were sacrificed 72 hours following the final administration to determine the PTEN mRNA levels in liver using real-time PCR and RIBOGREEN® RNA quantification reagent (Molecular Probes, Inc. Eugene, Oreg.) according to standard protocols. PTEN mRNA levels were determined relative to total RNA (using Ribogreen), prior to normalization to saline-treated control. Results are listed below as the average % inhibition of mRNA expression for each treatment group, normalized to saline-injected control.
Estimated ED50 concentrations for each oligomers were calculated using Graphpad Prism. ED50 is the dose at which 50% mRNA reducation is observed.

[1] = Liver transaminase (ALT) levels in serum (Example 14); type: in vivo, mice
Method: as §1
Liver transaminase levels, alanine aminotranferease (ALT) and aspartate aminotransferase (AST), in serum were also measured relative to saline injected mice. Increases in the transaminase levels can indicate hepatotoxicity. The approximate liver transaminase levels are listed below.

[2] = Body weight at sacrifice relative to pre-dose (Example 15); type: in vivo, mice; details: for % of pre-dose weight: 72 h, PBS = 99
Method: (§2) Mice were divided into 9 groups, with 4 mice in each group. The mice of 8 groups received a single dose, administered i.p., of one of the above oligomeric compounds at a dose of 100, 32, 10, or 3.2 mg/kg. The final group was dosed with phosphate buffered saline (PBS) as a control. The mice were sacrificed 72 hours after administration. Antisense activity was determined by measuring PTEN RNA in liver.
(§3) Body weight was measured before treatment and again at sacrifice 72 hours after treatment.

PTEN RNA [3] = assay: PTEN RNA in liver (Example 15 in vivo study); parameters: species or system mice; details: 72 h, compared to PBS control
Method: (§4) Six week old male Balb/c mice (Jackson Laboratory, Bar Harbor, Me.) were administered a single intraperitoneal (i.p) injection of oligomers as set forth in the table below.
as §2

[4] = Serum ALT, individual animals (Example 15); type: in vivo, mice; details: for ALT levels - Individual animals: serum, four animals
Method: as §2

[5] = Spleen weight as a measure of inflammatory response (Example 15); type: in vivo, mice; details: for spleen weight, % Control: relative to PBS control
Method: as §2
(§5) Spleens were weighed as a measure of inflammatory response.

PTEN RNA [6] = assay: PTEN RNA in liver (Example 16 in vivo study); parameters: species or system mice; details: for % Reduction PTEN RNA: liver, 72 h, compared to PBS control; for ED50: PTEN RNA in liver
Method: as §4
as §2, with “17” for “9”, “16” for “8”, “liver and is expressed as % reduction compared to PBS control mice.” for “liver.”

[7] = Serum ALT, individual animals (Example 16); type: in vivo, mice; details: four animals
Method: as §2, with “17” for “9”, “16” for “8”, “liver and is expressed as % reduction compared to PBS control mice.” for “liver.”
Toxicity was assessed by measuring alanine aminotranferease (ALT) in serum.

[8] = Spleen weight as a measure of inflammatory response (Example 16); type: in vivo, mice; details: for spleen weight, % Control: relative to PBS control
Method: as §2, with “17” for “9”, “16” for “8”, “liver and is expressed as % reduction compared to PBS control mice.” for “liver.”
as §5

[9] = Body weight at sacrifice relative to pre-dose (Example 16); type: in vivo, mice; details: 72 h, PBS = 102
Method: as §2, with “17” for “9”, “16” for “8”, “liver and is expressed as % reduction compared to PBS control mice.” for “liver.”
as §3

spleen weight, % Control ([8]; 3.2 mg/kg) [%] | spleen weight, % Control ([8]; 10 mg/kg) [%] | spleen weight, % Control ([8]; 32 mg/kg) [%] | spleen weight, % Control ([8]; 100 mg/kg) [%] | Substance | % Reduction PTEN RNA (PTEN RNA [6]; 3.2 mg/kg single i.p.) [%] | % Reduction PTEN RNA (PTEN RNA [6]; 10 mg/kg single i.p.) [%] | % Reduction PTEN RNA (PTEN RNA [6]; 32 mg/kg single i.p.) [%] | % Reduction PTEN RNA (PTEN RNA [6]; 100 mg/kg single i.p.) [%] | ED50 (PTEN RNA [6]) [mg/kg] | ALT levels - Individual animals ([7]; 3.2 mg/kg) | ALT levels - Individual animals ([7]; 10 mg/kg) | ALT levels - Individual animals ([7]; 32 mg/kg) | ALT levels - Individual animals ([7]; 100 mg/kg) | % pre-dose wt ([9]; 3.2 mg/kg) [%] | % pre-dose wt ([9]; 10 mg/kg) [%] | % pre-dose wt ([9]; 32 mg/kg) [%] | % pre-dose wt ([9]; 100 mg/kg) [%] | also measured
 |  |  |  | CSUSTAGCACTGGCCSUS [ISIS 392749] |  |  |  |  |  |  |  |  |  |  |  |  |  | PTEN mRNA levels (% inhibition) (PTEN mRNA; 3.2 mg/kg single i.p.): 14%; PTEN mRNA levels (% inhibition) (PTEN mRNA; 10 mg/kg single i.p.): 20%; PTEN mRNA levels (% inhibition) (PTEN mRNA; 32 mg/kg single i.p.): 81%; PTEN mRNA levels (% inhibition) (PTEN mRNA; 66 mg/kg single i.p.): 92%; PTEN mRNA levels (% inhibition) (PTEN mRNA; 100 mg/kg single i.p.): 93%; ED50 (PTEN mRNA): 15 mg/kg; ALT levels ([1]; 3.2 mg/kg, serum, saline = 24): 18 IU/L; ALT levels ([1]; 10 mg/kg, serum, saline = 24): 24 IU/L; ALT levels ([1]; 32 mg/kg, serum, saline = 24): 14 IU/L; ALT levels ([1]; 66 mg/kg, serum, saline = 24): 18 IU/L; ALT levels ([1]; 100 mg/kg, serum, saline = 24): 33 IU/L; ALT levels ([1]; all doses): not elevated to a level indicative of hepatotoxicity
 |  |  |  | Cas Uas Tds Ads Gds Cds Ads Cds Tds Gds Gds Cds Cas Ua [ISIS 396006] |  |  |  |  |  |  |  |  |  |  |  |  |  | % of pre-dose weight ([2]; 3.2 mg/kg): 100%; % of pre-dose weight ([2]; 10 mg/kg): 101%; % of pre-dose weight ([2]; 32 mg/kg): 101%; % of pre-dose weight ([2]; 100 mg/kg): 100%; % Reduction PTEN RNA (PTEN RNA [3]; 3.2 mg/kg single i.p.): 47%; % Reduction PTEN RNA (PTEN RNA [3]; 10 mg/kg single i.p.): 77%; % Reduction PTEN RNA (PTEN RNA [3]; 32 mg/kg single i.p.): 95%; % Reduction PTEN RNA (PTEN RNA [3]; 100 mg/kg single i.p.): 97%; ALT levels - Individual animals ([4]; 3.2 mg/kg): 27 IU/L and 19 IU/L and 17 IU/L and 24 IU/L; ALT levels - Individual animals ([4]; 10 mg/kg): 18 IU/L and 22 IU/L and 19 IU/L and 20 IU/L; ALT levels - Individual animals ([4]; 32 mg/kg): 24 IU/L and 19 IU/L and 15 IU/L and 23 IU/L; ALT levels - Individual animals ([4]; 100 mg/kg): 28 IU/L (2×) and 23 IU/L (2×); spleen weight, % Control ([5]; 3.2 mg/kg): 95%; spleen weight, % Control ([5]; 10 mg/kg): 100%; spleen weight, % Control ([5]; 32 mg/kg): 97%; spleen weight, % Control ([5]; 100 mg/kg): 120%
89 | 96 | 110 | 96 | Cjs Uos Tds Ads Gds Cds Ads Cds Tds Gds Gds Cds Cjs Uj [ISIS 443393] | 10 | 35 | 64 | 91 | 16.2 | 19 IU/L and 36 IU/L and 83 IU/L and 20 IU/L | 26 IU/L and 33 IU/L and 30 IU/L and 29 IU/L | 21 IU/L and 24 IU/L and 53 IU/L (2×) | 16 IU/L and 22 IU/L and 42 IU/L and 23 IU/L | 101 | 104 | 99 | 98 | 
98 | 92 | 101 | 109 | Cxs Uxs Tds Ads Gds Cds Ads Cds Tds Gds Gds Cds Cxs Ux [ISIS 445544] | 31 | 72 | 93 | 95 | 4.9 | 21 IU/L and 28 IU/L and 30 IU/L and 36 IU/L | 23 IU/L and 33 IU/L and 20 IU/L and 36 IU/L | 23 IU/L and 38 IU/L and 19 IU/L and 22 IU/L | 977 IU/L and 1061 IU/L and 88 IU/L and 133 IU/L | 103 | 101 | 102 | 98 | 
 |  |  |  | ^MeCSTSTAGCACTGGC^MeCSTS [ISIS 411847] |  |  |  |  |  |  |  |  |  |  |  |  |  | PTEN mRNA levels (% inhibition) (PTEN mRNA; 3.2 mg/kg single i.p.): 0%; PTEN mRNA levels (% inhibition) (PTEN mRNA; 10 mg/kg single i.p.): 32%; PTEN mRNA levels (% inhibition) (PTEN mRNA; 32 mg/kg single i.p.): 87%; PTEN mRNA levels (% inhibition) (PTEN mRNA; 66 mg/kg single i.p.): 84%; PTEN mRNA levels (% inhibition) (PTEN mRNA; 100 mg/kg single i.p.): 92%; ED50 (PTEN mRNA): 12 mg/kg; ALT levels ([1]; 3.2 mg/kg, serum, saline = 24): 26 IU/L; ALT levels ([1]; 10 mg/kg, serum, saline = 24): 27 IU/L; ALT levels ([1]; 32 mg/kg, serum, saline = 24): 16 IU/L; ALT levels ([1]; 66 mg/kg, serum, saline = 24): 279 IU/L; ALT levels ([1]; 100 mg/kg, serum, saline = 24): 2816 IU/L; ALT level decrease as compared to 392063 treatment ([1]; dose not stated): about 5 fold
 |  |  |  | ^mCas Tas Tds Ads Gds Cds Ads Cds Tds Gds Gds Cds ^mCas Ta [ISIS 435854] |  |  |  |  |  |  |  |  |  |  |  |  |  | % of pre-dose weight ([2]; 3.2 mg/kg): 99%; % of pre-dose weight ([2]; 10 mg/kg): 102%; % of pre-dose weight ([2]; 32 mg/kg): 102%; % of pre-dose weight ([2]; 100 mg/kg): 94%; body weight ([2]; highest dose): some weight loss; % Reduction PTEN RNA (PTEN RNA [3]; 3.2 mg/kg single i.p.): 48%; % Reduction PTEN RNA (PTEN RNA [3]; 10 mg/kg single i.p.): 73%; % Reduction PTEN RNA (PTEN RNA [3]; 32 mg/kg single i.p.): 94%; % Reduction PTEN RNA (PTEN RNA [3]; 100 mg/kg single i.p.): 95%; ALT levels - Individual animals ([4]; 3.2 mg/kg): 15 IU/L and 22 IU/L and 20 IU/L and 11 IU/L; ALT levels - Individual animals ([4]; 10 mg/kg): 23 IU/L and 21 IU/L and 33 IU/L and 28 IU/L; ALT levels - Individual animals ([4]; 32 mg/kg): 24 IU/L and 29 IU/L and 16 IU/L and 46 IU/L; ALT levels - Individual animals ([4]; 100 mg/kg): 1575 IU/L and 854 IU/L and 1665 IU/L and 3948 IU/L; Serum ALT ([4]; highest dose): elevated; spleen weight, % Control ([5]; 3.2 mg/kg): 112%; spleen weight, % Control ([5]; 10 mg/kg): 87%; spleen weight, % Control ([5]; 32 mg/kg): 115%; spleen weight, % Control ([5]; 100 mg/kg): 160%; spleen weight compared to control and to the non-methylated compound ([5]; mouse, in vivo): marked increase
106 | 96 | 97 | 98 | ^mCjs Tjs Tds Ads Gds Cds Ads Cds Tds Gds Gds Cds ^mCjs Tj [ISIS 443394] | 16 | 39 | 68 | 89 | 13.5 | 28 IU/L and 26 IU/L and 30 IU/L and 69 IU/L | 55 IU/L and 28 IU/L and 32 IU/L (2×) | 55 IU/L and 25 IU/L (2×) and 28 IU/L | 23 IU/L (2×) and 44 IU/L and 18 IU/L | 102 | 102 | 101 | 101 | 
100 | 99 | 134 | 139 | ^mCxs Txs Tds Ads Gds Cds Ads Cds Tds Gds Gds Cds ^mCxs Tx [ISIS 445545] | 21 | 55 | 87 | 92 | 7.7 | 20 IU/L and 34 IU/L (2×) and 31 IU/L | 79 IU/L and 19 IU/L and 28 IU/L and 18 IU/L | 22 IU/L and 45 IU/L and 24 IU/L and 47 IU/L | 102 IU/L and 135 IU/L and 277 IU/L and 85 IU/L | 100 | 102 | 101 | 102 | spleen weight compared to control and to the non-methylated compound ([8]; mouse, in vivo): increase in spleen weight
